Reference: patent US8987474B2 (University of South Florida, priority 2006, dated 2015)
“And” between values parts separate entries of the source, which are not always exact repeats. Equal values may be shown once. Read-outs that look alike come from different tables or passages of the source.

Assays:
[1] = target: T1, Shp1 (Homo sapiens (Human), UniProt P29350)
[2] = target: Shp2 (Homo sapiens (Human), UniProt Q06124); test: PTP activity assay (DiFMUP substrate) with GST-Shp2; assay type: biochemical; conditions: for IC50: Table II, Shp2
Excerpt: All constructs were verified by DNA sequencing.
Recombinant DEP1 was from Abcam.

[3] = target: T1, Shp1; test: biochemical

T1 sequence (P29350 203-595): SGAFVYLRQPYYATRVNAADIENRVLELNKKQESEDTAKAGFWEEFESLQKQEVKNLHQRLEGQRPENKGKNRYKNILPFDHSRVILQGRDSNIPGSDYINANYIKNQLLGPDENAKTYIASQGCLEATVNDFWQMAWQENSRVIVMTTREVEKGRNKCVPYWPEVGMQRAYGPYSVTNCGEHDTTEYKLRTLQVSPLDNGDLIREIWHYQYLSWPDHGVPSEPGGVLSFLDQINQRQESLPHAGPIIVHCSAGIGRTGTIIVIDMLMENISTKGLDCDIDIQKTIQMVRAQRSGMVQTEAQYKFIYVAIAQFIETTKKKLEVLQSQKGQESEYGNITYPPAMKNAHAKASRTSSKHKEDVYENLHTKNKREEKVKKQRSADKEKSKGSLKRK
Sequence of Shp2 (Q06124 205-593): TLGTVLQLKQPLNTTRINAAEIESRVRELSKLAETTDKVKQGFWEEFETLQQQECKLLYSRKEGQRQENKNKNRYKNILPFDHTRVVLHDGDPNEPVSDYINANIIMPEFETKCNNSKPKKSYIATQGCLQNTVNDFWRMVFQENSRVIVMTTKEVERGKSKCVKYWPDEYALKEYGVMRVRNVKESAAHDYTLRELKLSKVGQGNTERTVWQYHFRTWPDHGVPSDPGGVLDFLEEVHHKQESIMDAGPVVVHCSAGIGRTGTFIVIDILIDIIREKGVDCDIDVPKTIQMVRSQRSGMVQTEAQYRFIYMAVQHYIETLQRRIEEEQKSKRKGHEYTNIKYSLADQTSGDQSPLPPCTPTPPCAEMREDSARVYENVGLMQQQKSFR

Row | Structure (SMILES) | % PTP activity ([2]; concentration not given) | % PTP activity ([2]; at 20 μM) | other results
1 | O=C1Nc2ccc(S(=O)(=O)O)cc2/C1=N/Nc1ccccc1[N+](=O)[O-] [HL1-056] | 86 ± 3% (6) |  | IC50 [1]: 68.1 µM
2 | NS(=O)(=O)c1ccc2c(c1)/C(=N/Nc1ccccc1[N+](=O)[O-])C(=O)N2 [RPM134, 3-[(2-Nitrophenyl)hydrazono]-2-oxo-2,3-dihydro-1H-indole-5-sulfonicamide] | 13 ± 5% (12) |  | IC50 [3]: 93.5 µM
3 | O=C1Nc2ccc(C(=O)O)cc2/C1=N/Nc1cccc(C(=O)O)c1 [HL2-052-3] |  | 56.94% (1) at 20 μM | IC50 [1]: 72.5 µM
4 | CC(C)NS(=O)(=O)c1ccc2c(c1)/C(=N/Nc1ccccc1[N+](=O)[O-])C(=O)N2 [RPM169, 3-[(2-Nitrophenyl)hydrazono]-2-oxo-2,3-dihydro-1H-indole-5-sulfonic acid isopropylamide] | 8 + 3% (12) |  | IC50 [3]: 110 µM
5 | O=C1Nc2ccc(C(=O)O)cc2/C1=N/Nc1ccccc1C(=O)O [HL2-052-2] |  | 46 ± 3% (2) at 20 μM | IC50 [3]: 21.4 µM
6 | O=C1Nc2ccc(C(=O)NCc3ccc(Cl)cc3)cc2/C1=N/Nc1cccc(C(=O)O)c1 [HL2-070-5] |  | 62.32% (1) at 20 μM | IC50 [1]: 19.4 µM
7 | O=C1Nc2ccc(S(=O)(=O)NCc3cccs3)cc2/C1=N/Nc1ccccc1Cl [HL2-016-6] | 51 ± 3% (6) |  | 
8 | O=C1Nc2ccc(S(=O)(=O)O)cc2/C1=N/Nc1nc2ccccc2s1 [HL1-058-3] | 46 ± 4% (3) |  | IC50 [2]: 33 to 100 µM
9 | CCN(CC)C(=O)c1ccc2c(c1)/C(=N/Nc1ccccc1C(=O)O)C(=O)N2 [HL2-070-1] |  | 100.18% (1) at 20 μM | 
10 | O=C1Nc2ccccc2/C1=N/Nc1ccccc1Cl [HL1-050-1] | 99 ± 2% (3) |  | IC50 [2]: 33 to 100 µM
11 | CCOC(=O)c1cccc(NC(=O)c2ccc3cc(C(=O)OC)ccc3c2)c1 [HL2-022-1-Intermediate] | 68 ± 20% (7) |  | 
12 | CC(C)NS(=O)(=O)c1ccc2c(c1)/C(=N/Nc1cccc(C(=O)O)c1)C(=O)N2 [RPM297, 3-[N′-(5-Isopropylsulfamoyl-2-oxo-1,2-dihydro-indol-3-ylidene)hydrazino]benzoic acid] |  | 54 ± 8% (2) At 20 μM | IC50 [1]: 15.7 µM
13 | O=C1Cc2cc(S(=O)(=O)NCc3ccc(Cl)cc3)ccc2N1 [RPM307, 2-Oxo-2,3-dihydro-1H-indole-5-sulfonic acid 4-chloro-benzylamide] |  | 39 ± 10% (20 at 20 μM | 
14 | CCC(C)NS(=O)(=O)c1ccc2c(c1)/C(=N/Nc1ccccc1Cl)C(=O)N2 (stereo not drawn) [HL2-016-13] | 35 ± 4% (6) |  | 
15 | CC(C)NS(=O)(=O)c1ccc2c(c1)/C(=N/Nc1cccc(C(=O)NCc3cccnc3)c1)C(=O)N2 [RPM332, 3-[N′-(5-Isopropylsulfamoyl-2-oxo-1,2-dihydro-indol-3-ylidene)hydrazino]-N-pyridin-3-ylmethylbenzamide] |  | 54 ± 7% (2) at 20 μM | IC50 [2]: 33 to 100 µM
16 | COCCNC(=O)c1cccc(N/N=C2\C(=O)Nc3ccc(S(=O)(=O)NC(C)C)cc32)c1 [RPM327, 3-[N′-(5-Isopropylsulfamoyl-2-oxo-1,2-dihydro-indol-3-ylidene)hydrazino]-N-(2-methoxyethyl)benzamide] |  | 44 + 7% (2) at 20 μM | 
17 | COC(=O)c1ccc2cc(C(=O)Nc3c(O)cccc3C(=O)O)ccc2c1 [RPM202] |  | 58 ± 7% (3) at 20 uM | IC50 [2]: 33 to 100 µM
18 | COC(=O)c1ccc2cc(C(=O)Nc3ccc(S(N)(=O)=O)cc3)ccc2c1 [RPM187] |  | 66 ± 4% (3) at 20 uM | 
19 | CCC(C)NS(=O)(=O)c1ccc2c(c1)/C(=N/Nc1ccccc1[N+](=O)[O-])C(=O)N2 (stereo not drawn) [RPM173, 3-[(2-Nitrophenyl)hydrazono]-2-oxo-2,3-dihydro-1H-indole-5-sulfonic acid sec-butylamide] | 33 ± 7% (12) |  | 
20 | COCCNC(=O)c1ccccc1N/N=C1\C(=O)Nc2ccc(S(=O)(=O)NC(C)C)cc21 [RPM285, 2-[N′-(5-Isopropylsulfamoyl-2-oxo-1,2-dihydro-indol-3-ylidene)-hydrazino]-N-(2-methoxyethyl)benzamide] |  | 51 ± 7% (2) At 20 μM | 
21 | O=C1Nc2ccc(S(=O)(=O)NCc3ccc(Cl)cc3)cc2/C1=N/Nc1ccccc1C(=O)O [RPM191, 2-[N′-[5-(4-Chloro-benzylsulfamoyl)-2-oxo-1,2-dihydro-indol-3-ylidene]hydrazino}benzoic acid] |  | 65.07% and 53.99% | IC50 [2]: 33 to 100 µM

Row | Structure (SMILES) | % PTP activity ([2]; concentration not given) | % PTP activity ([2]; at 20 μM) | other results
22 | O=C1Nc2ccc(S(=O)(=O)NCc3ccccn3)cc2/C1=N/Nc1ccccc1[N+](=O)[O-] [RPM135, 3-[(2-Nitrophenyl)hydrazono]-2-oxo-2,3-dihydro-1H-indole-5-sulfonic acid (pyridin-2-ylmethyl)amide] | 47 ± 10% (12) |  | IC50 [2]: 33 to 100 µM
23 | O=C(O)c1ccc2cc(C(=O)Nc3cccc(S(=O)(=O)O)c3)ccc2c1 [HL2-022-2] | 52 ± 17% (5) |  | 
24 | O=C1Nc2ccc(S(=O)(=O)O)cc2/C1=N/Nc1ccccc1C(F)(F)F [RPM221, 2-Oxo-3-[(2-trifluoromethylphenylhydrazono)]-2,3-dihydro-1H-indole-5-sulfonic acid] |  | 63 ± 4% (3) at 20 μM | IC50 [2]: 33 to 100 µM
25 | COC(=O)c1ccccc1/C=C1\C(=O)Nc2ccc(S(=O)(=O)NC(C)C)cc21 [RPM347, 2-(5-Isopropylsulfamoyl-2-oxo-1,2-dihydro-indol-3-ylidenemethyl)benzoic acid methyl ester] |  | 48 ± 9% (2) At 20 μM | 
26 | CC(C)NS(=O)(=O)c1ccc2c(c1)/C(=N/Nc1cccc(C(=O)NCc3ccccc3)c1)C(=O)N2 [RPM328, N-Benzyl-3-[N′-(5-isopropylsulfamoyl-2-oxo-1,2-dihydro-indol-3-ylidene)hydrazino]benzamide] |  | 47 ± 3% (2) at 20 μM | 
27 | O=C1Nc2ccc(C(=O)O)cc2/C1=N/Nc1ccccc1Cl [RPM270] |  | 45 ± 18% (2) At 20 μM | IC50 [2]: 33 to 100 µM
28 | CC(C)NS(=O)(=O)c1ccc2c(c1)/C(=N/Nc1ccccc1C(=O)O)C(=O)N2 [RPM186, 2-[N′-(5-Isopropylsulfamoyl-2-oxo-1,2-dihydro-indol-3-ylidene)-hydrazino]benzoic acid] |  | 0.8 ± 1% (3) at 20 μM | IC50 [3]: 10.8 µM
29 | CN(C)CCNS(=O)(=O)c1ccc2c(c1)/C(=N/Nc1ccccc1[N+](=O)[O-])C(=O)N2 [RPM146, 3-[(2-Nitrophenyl)hydrazono]-2-oxo-2,3-dihydro-1H-indole-5-sulfonic acid (2-dimethylaminoethyl)amide] | 57 ± 6% (6) |  | 
30 | CC(C)NS(=O)(=O)c1ccc2c(c1)/C(=N/Nc1ccccc1C(=O)NCc1ccccc1)C(=O)N2 [RPM287, N-Benzyl-2-[N′-(5-isopropylsulfamoyl-2-oxo-1,2-dihydro-indol-3-ylidene)hydrazino]benzamide] |  | 48 ± 10% (2) At 20 μM | 
31 | O=C1Nc2ccc(S(=O)(=O)NCC3CCCO3)cc2/C1=N/Nc1ccccc1[N+](=O)[O-] (stereo not drawn) [RPM172, 3-[(2-Nitrophenyl)hydrazono]-2-oxo-2,3-dihydro-1H-indole-5-sulfonic acid (tetrahydrofuran-2-ylmethyl)amide] | 35 ± 5% (12) |  | 
32 | CCOC(=O)c1ccc(N/C=C2\C(=O)Nc3ccc(S(=O)(=O)NC(C)C)cc32)cc1 [RPM288, 4-[(5-Isopropylsulfamoyl-2-oxo-1,2-dihydro-indol-3-ylidenemethyl)amino]benzoic acid ethyl ester] |  | 30 ± 2% (2) at 20 μM | 
33 | NS(=O)(=O)c1ccc2c(c1)/C(=N/Nc1ccccc1Cl)C(=O)N2 [HL2-016.2] | 40 ± 8% (12) |  | 
34 | O=C1Nc2ccc(C(=O)O)cc2/C1=N/Nc1ccccc1[N+](=O)[O-] [HL2-054] |  | 60.57% (1) at 20 μM | 
35 | O=C1Nc2ccc(S(=O)(=O)NCc3ccc(Cl)cc3)cc2/C1=N/Nc1ccccc1[N+](=O)[O-] [RPM139, 3-[(2-Nitrophenyl)hydrazono]-2-oxo-2,3-dihydro-1H-indole-5-sulfonic acid 4-chlorobenzylamide] | 12 ± 5% (12) |  | IC50 [3]: 42.2 µM
36 | Cc1ccccc1N/N=C1\C(=O)Nc2ccc(S(=O)(=O)O)cc21 [RPM216, 2-Oxo-3-[(2-methylphenylhydrazono)]-2,3-dihydro-1H-indole-5-sulfonic acid] |  | 50 ± 14% (3) at 20 μM | 
37 | CC(C)NS(=O)(=O)c1ccc2c(c1)/C(=C/Nc1ccc(C(=O)O)cc1)C(=O)N2 [RPM305, 4-[(5-Isopropylsulfamoyl-2-oxo-1,2-dihydro-indol-3-ylidenemethyl)amino]benzoic acid] |  | 56.77% (1) at 20 μM | IC50 [2]: 33 to 100 µM
38 | CCNC(=O)c1cccc(N/N=C2\C(=O)Nc3ccc(S(=O)(=O)NC(C)C)cc32)c1 [RPM331, N-Ethyl-3-[N′-(5-isopropylsulfamoyl-2-oxo-1,2-dihydro-indol-3-ylidene)hydrazino]benzamide] |  | 45 + 2% 92) at 20 μM | 
39 | O=C(O)c1ccc(NC(=O)c2ccc3cc(C(=O)O)ccc3c2)cc1 [RPM194] |  | 69 ± 7.5% (3) at 20 uM | 
40 | COC(=O)c1ccccc1N/C=C1\C(=O)Nc2ccc(S(=O)(=O)NC(C)C)cc21 [RPM335, 2-[(5-Isopropylsulfamoyl-2-oxo-1,2-dihydro-indol-3-ylidenemethyl)amino]benzoic acid methyl ester] |  | 54.19% (1) At 20 μM | IC50 [2]: 33 to 100 µM
41 | O=C1Nc2ccc(S(=O)(=O)NCc3ccc(Cl)cc3)cc2/C1=N/Nc1ccccc1Cl [HL2-016-4] | 32 ± 17% (12) |  | 
